Assay results reported in the supplement of paper PMC12137928.
Structures can show the parent of a compound that is named as a salt.

Tested on: HCT116
Details: 72 h
Outline: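 In 1536-well plates, 250 HCT116 cells per well were seeded and left for 5 h to attach. Luminescence from CellTiter-Glo was set against vehicle (0%) and positive control (-100%), and pattern correction was applied. IC50 and maximal efficacy come from four-parameter Hill fitting.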

IC50 cell viability (ICRF193 0 nM) [µM] | IC50 cell viability (ICRF193 200 nM) [µM] | SMILES
> 45.8 | > 45.8 | N.N.O=C([O-])C[O-].[Pt+2] [Nedaplatin]
> 45.8 | > 45.8 | CCCc1c2oc(C(=O)O)cc(=O)c2cc2c(=O)cc(C(=O)O)n(CC)c12 [Nedocromil]
> 45.8 | > 45.8 | CN1CCOC(c2ccccc2)c2ccccc2C1 (stereo not drawn) [Nefopam hydrochloride]
> 45.8 | > 45.8 | COc1nc(N)nc2c1ncn2[C@@H]1O[C@H](CO)[C@@H](O)[C@@H]1O [Nelarabine]
> 45.8 | > 45.8 | NC(=O)Cc1cccc(C(=O)c2ccccc2)c1N [Nepafenac]
> 45.8 | > 45.8 | COc1ccnc2c1CCCCC2[S+]([O-])c1nc2ccccc2[nH]1 (stereo not drawn) [Nepaprazole]
> 45.8 | > 45.8 | CCCCc1cc2c(=O)c(C(=O)OC)c[nH]c2cc1OCc1ccccc1 [Nequinate]
> 45.8 | > 45.8 | CCOc1cc2ncc(C#N)c(Nc3ccc(OCc4ccccn4)c(Cl)c3)c2cc1NC(=O)/C=C/CN(C)C [Neratinib]
> 45.8 | > 45.8 | CCN[C@@H]1C[C@H](N)[C@@H](O[C@H]2OC(CN)=CC[C@H]2N)[C@H](O)[C@H]1O[C@H]1OC[C@](C)(O)[C@H](NC)[C@H]1O [Netilmicin sulfate]
> 45.8 | > 45.8 | Cc1ccccc1-c1cc(N2CCN(C)CC2)ncc1N(C)C(=O)C(C)(C)c1cc(C(F)(F)F)cc(C(F)(F)F)c1 [Netupitant]
> 45.8 | > 45.8 | Cc1ccnc2c1NC(=O)c1cccnc1N2C1CC1 [Nevirapine]
> 45.8 | > 45.8 | O=C(O)c1cccnc1 [Niacin]
> 45.8 | > 45.8 | CCN(CC)CCOC(=O)c1cccnc1 [Nicametate citrate]
> 45.8 | > 45.8 | O=C(OCC(COC(=O)c1cccnc1)(COC(=O)c1cccnc1)COC(=O)c1cccnc1)c1cccnc1 [Niceritrol]
> 45.8 | > 45.8 | CCCCOCCOC(=O)c1cccnc1 [Nicoboxil]
> 45.8 | > 45.8 | O=C(OCC1(COC(=O)c2cccnc2)CCCC(COC(=O)c2cccnc2)(COC(=O)c2cccnc2)C1O)c1cccnc1 [Nicomolol]
> 45.8 | > 45.8 | O=C(NCCO[N+](=O)[O-])c1cccnc1 [Nicorandil]
> 45.8 | > 45.8 | Cn1c(NCCN(CCO)CCCc2ccc([N+](=O)[O-])cc2)cc(=O)n(C)c1=O [Nifekalant]
> 45.8 | > 45.8 | Cc1c(NC(=O)c2cccnc2)c(=O)n(-c2ccccc2)n1C [Nifenazone]
> 45.8 | > 45.8 | O=[N+]([O-])c1ccc(/C=N/O)o1 [Nifuroxime]
> 45.8 | > 45.8 | Cc1cn(-c2cc(NC(=O)c3ccc(C)c(Nc4nccc(-c5cccnc5)n4)c3)cc(C(F)(F)F)c2)cn1 [Nilotinib]
> 45.8 | > 45.8 | CC1(C)NC(=O)N(c2ccc([N+](=O)[O-])c(C(F)(F)F)c2)C1=O [Nilutamide]
> 45.8 | > 45.8 | COC(=O)C1=C(C#N)NC(C)=C(C(=O)OC(C)C)C1c1cccc([N+](=O)[O-])c1 (stereo not drawn) [Nilvadipine]
> 45.8 | > 45.8 | CS(=O)(=O)Nc1ccc([N+](=O)[O-])cc1Oc1ccccc1 [Nimesulide]
> 45.8 | > 45.8 | COCCOC(=O)C1=C(C)NC(C)=C(C(=O)OC(C)C)C1c1cccc([N+](=O)[O-])c1 (stereo not drawn) [Nimodipine]
> 45.8 | > 45.8 | O=C1CCCC(=O)C1C(=O)c1ccc(C(F)(F)F)cc1[N+](=O)[O-] [Nitisinone]
> 45.8 | > 45.8 | CCOC(=O)C1=C(C)NC(C)=C(C(=O)OC)C1c1cccc([N+](=O)[O-])c1 (stereo not drawn) [Nitrendipine]

IC50 cell viability (ICRF193 0 nM) [µM] | IC50 cell viability (ICRF193 200 nM) [µM] | SMILES
> 45.8 | > 45.8 | O=C1CN(/N=C/c2ccc([N+](=O)[O-])o2)C(=O)N1 [Nitrofurantoin]
> 45.8 | > 45.8 | NC(=O)N/N=C/c1ccc([N+](=O)[O-])o1 [Nitrofurazone]
> 45.8 | > 45.8 | CNC(=C[N+](=O)[O-])NCCSCc1csc(CN(C)C)n1 [Nizatidine]
> 45.8 | > 45.8 | CC(=O)O[C@]1(C(C)=O)CC[C@H]2[C@@H]3C=C(C)C4=CC(=O)CC[C@@H]4[C@H]3CC[C@@]21C [Nomegestrol acetate]
> 45.8 | > 45.8 | O=C(O)CCCCCCCC(=O)O [Nonanedioic acid]
> 45.8 | > 45.8 | NC[C@H](O)c1ccc(O)c(O)c1 [Noradrenaline bitartrate monohydrate]
> 45.8 | > 45.8 | C#C[C@]1(O)CC[C@H]2[C@@H]3CCC4=CC(=O)CC[C@@H]4[C@H]3CC[C@@]21C [Norethindrone]
> 45.8 | > 45.8 | CCn1cc(C(=O)O)c(=O)c2cc(F)c(N3CCNCC3)cc21 [Norfloxacin]
> 45.8 | > 45.8 | C#C[C@]1(O)CC[C@H]2[C@@H]3CCC4=CC(=NO)CC[C@@H]4[C@H]3CC[C@@]21CC [Norgestimate metabolite Norelgestromin]
> 45.8 | > 45.8 | C#CC1(O)CC[C@H]2[C@@H]3CCC4=CC(=O)CC[C@@H]4[C@H]3CC[C@@]21CC (stereo partly drawn) [Norgestrel]
> 45.8 | > 45.8 | COc1ccc2c(c1OC)C(=O)O[C@@H]2[C@H]1c2c(cc3c(c2OC)OCO3)CCN1C [Noscapine]
> 45.8 | > 45.8 | CO[C@@H]1[C@@H](OC(N)=O)[C@@H](O)[C@H](Oc2ccc3c(O)c(NC(=O)c4ccc(O)c(CC=C(C)C)c4)c(=O)oc3c2C)OC1(C)C [Novobiocin sodium]
> 45.8 | > 45.8 | NCCC[C@H](NC(=O)[C@@H]1CCCN1C(=O)[C@@H]1CSSC[C@H](N)C(=O)N[C@@H](Cc2ccc(O)cc2)C(=O)N[C@@H](Cc2ccccc2)C(=O)N[C@@H](CCC(N)=O)C(=O)N[C@@H](CC(N)=O)C(=O)N1)C(=O)NCC(N)=O [ORNIPRESSIN]
> 45.8 | > 45.8 | NCCC[C@H](N)C(=O)O [ORNITHINE HYDROCHLORIDE]
> 45.8 | > 45.8 | CN1CCCN=C1/C=C/c1cccc(O)c1 [OXANTEL PAMOATE]
> 45.8 | > 45.8 | CNc1ncc(-c2ccc3c(=O)c(C(=O)O)cn(C4CC4)c3c2C)cc1C [OZENOXACIN]
> 45.8 | > 45.8 | CC1CC(=O)NN=C1c1ccc(NCC(C)(C)NCC(O)COc2cc(Cl)ccc2C#N)cc1 (stereo not drawn) [Oberadilol]
> 45.8 | > 45.8 | CNS(=O)(=O)C[C@H]1CC[C@H](N(C)c2[nH]cnc3nccc2-3)CC1 [Oclacitinib]
> 45.8 | > 45.8 | CCCCCCCCCCCCCCCCCC(=O)OCC(C)O (stereo not drawn) [Octadecanoic acid, monoester with 1,2-propanediol]
> 45.8 | > 45.8 | CCCCCCCCCCCCCCCCCC(=O)O [Octadecanoic acid]
> 45.8 | > 45.8 | CCCCCCCC(=O)O [Octanoic acid]
> 45.8 | > 45.8 | CCCCC(CC)COC(=O)C=Cc1ccc(OC)cc1 (stereo not drawn) [Octinoxate]
> 45.8 | > 45.8 | CCCCC(CC)COC(=O)C(C#N)=C(c1ccccc1)c1ccccc1 (stereo not drawn) [Octocrylene]
> 45.8 | > 45.8 | COC(=O)CCCCC(CCSS/C(CCO)=C(/C)N(C=O)Cc1cnc(C)nc1N)SC(C)=O (stereo not drawn) [Octotiamine]
> 45.8 | > 45.8 | C[C@@H](O)[C@@H]1NC(=O)[C@H](CCCCN)NC(=O)[C@@H](Cc2c[nH]c3ccccc23)NC(=O)[C@H](Cc2ccccc2)NC(=O)[C@@H](NC(=O)[C@H](N)Cc2ccccc2)CSSC[C@@H](C(=O)N[C@H](CO)[C@@H](C)O)NC1=O [Octreotide acetate]
> 45.8 | > 45.8 | Cc1cc2c(s1)Nc1ccccc1N=C2N1CCN(C)CC1 [Olanzapine]
> 45.8 | > 45.8 | O=C(c1cc(Cc2n[nH]c(=O)c3ccccc23)ccc1F)N1CCN(C(=O)C2CC2)CC1 [Olaparib]

SMILES | IC50 cell viability (ICRF193 0 nM) [µM] | IC50 cell viability (ICRF193 200 nM) [µM]
CN(C)C(=O)Oc1cccc([N+](C)(C)C)c1 [Neostigmine bromide] | > 45.8 | > 45.8
Cc1ncc(CNC(=O)N(CCCl)N=O)c(N)n1 [Nimustine] | > 45.8 | > 45.8
O=[N+]([O-])c1ccc([As](=O)(O)O)cc1 [Nitarsone] | > 45.8 | > 45.8
O=[N+]([O-])c1ccccc1 [Nitrobenzene] | > 45.8 | > 45.8
NC(=O)c1cc([N+](=O)[O-])cc([N+](=O)[O-])c1 [Nitromide] | > 45.8 | > 45.8
CCN(CC)Cc1nccn1-c1ccc([N+](=O)[O-])cc1C(=O)c1ccccc1Cl [Nizofenone] | > 45.8 | > 45.8
CCCCCCCCC(=O)NCc1ccc(O)c(OC)c1 [Nonivamide] | > 45.8 | > 45.8
CCC(=O)C(CCN(C)C)(c1ccccc1)c1ccccc1 [Normethadone] | > 45.8 | > 45.8
NCC(O)c1cccc(O)c1 (stereo not drawn) [Norphenylephrine hydrochloride] | > 45.8 | > 45.8
NCC(O)c1ccc(O)cc1 (stereo not drawn) [Octopamine] | > 45.8 | > 45.8
